Results from PubChem BioAssay (NCI).
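Exposure lasted 48 hours, with cells grown in 96-well plates and compounds tested at five concentrations. TGI: total growth inhibition.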

Key:
Assay in all cases: inhibition of tumour cell growth, NCI panel, 48 h
SK-MEL-2 melanoma = tested on: SK-MEL-2 melanoma
CCRF-CEM leukemia = tested on: CCRF-CEM leukemia
SNB-75 CNS = tested on: SNB-75 CNS
KM12 colon = tested on: KM12 colon
RPMI-8226 leukemia = tested on: RPMI-8226 leukemia
SK-MEL-5 melanoma = tested on: SK-MEL-5 melanoma
UACC-257 melanoma = tested on: UACC-257 melanoma
UO-31 renal = tested on: UO-31 renal
786-0 renal = tested on: 786-0 renal
KM20L2 colon = tested on: KM20L2 colon
SNB-78 CNS = tested on: SNB-78 CNS
XF 498 CNS = tested on: XF 498 CNS
SF-295 CNS = tested on: SF-295 CNS
SF-268 CNS = tested on: SF-268 CNS
HT29 colon = tested on: HT29 colon
DLD-1 colon = tested on: DLD-1 colon
U251 CNS = tested on: U251 CNS
COLO 205 colon = tested on: COLO 205 colon
M14 melanoma = tested on: M14 melanoma
NCI-H226 lung = tested on: NCI-H226 lung
SW-620 colon = tested on: SW-620 colon
NCI-H23 lung = tested on: NCI-H23 lung
DMS 273 small cell lung = tested on: DMS 273 small cell lung
HOP-62 NSCLC = tested on: HOP-62 NSCLC
HOP-92 NSCLC = tested on: HOP-92 NSCLC
IGROV1 ovarian = tested on: IGROV1 ovarian
MOLT-4 leukemia = tested on: MOLT-4 leukemia
HOP-18 NSCLC = tested on: HOP-18 NSCLC
HL-60(TB) leukemia = tested on: HL-60(TB) leukemia
M19-MEL melanoma = tested on: M19-MEL melanoma
HCT-15 colon = tested on: HCT-15 colon
OVCAR-3 ovarian = tested on: OVCAR-3 ovarian
SK-OV-3 ovarian = tested on: SK-OV-3 ovarian
SN12C renal = tested on: SN12C renal
SF-539 CNS = tested on: SF-539 CNS
NCI-H460 lung = tested on: NCI-H460 lung
MALME-3M melanoma = tested on: MALME-3M melanoma
CAKI-1 renal = tested on: CAKI-1 renal
LOX IMVI melanoma = tested on: LOX IMVI melanoma
ACHN renal = tested on: ACHN renal
OVCAR-4 ovarian = tested on: OVCAR-4 ovarian
OVCAR-5 ovarian = tested on: OVCAR-5 ovarian
RXF 393 renal = tested on: RXF 393 renal
SK-MEL-28 melanoma = tested on: SK-MEL-28 melanoma
DMS 114 small cell lung = tested on: DMS 114 small cell lung
RXF-631 renal = tested on: RXF-631 renal
A498 renal = tested on: A498 renal
UACC-62 melanoma = tested on: UACC-62 melanoma
LXFL 529 NSCLC = tested on: LXFL 529 NSCLC
A549 NSCLC = tested on: A549 NSCLC
K-562 leukemia = tested on: K-562 leukemia
HCC-2998 colon = tested on: HCC-2998 colon
SR leukemia = tested on: SR leukemia
OVCAR-8 ovarian = tested on: OVCAR-8 ovarian
NCI-H522 lung = tested on: NCI-H522 lung
SNB-19 CNS = tested on: SNB-19 CNS
EKVX NSCLC = tested on: EKVX NSCLC
TK-10 renal = tested on: TK-10 renal
HCT-116 colon = tested on: HCT-116 colon

With `CCOC(=O)NC1C2CC(=O)C(O2)C1OCc1ccccc1` (stereo not drawn) the TGI (SK-MEL-2 melanoma) was > 100 µM, the TGI (CCRF-CEM leukemia) was > 100 µM and the TGI (SNB-75 CNS) was > 100 µM. For the same compound, the TGI (KM12 colon) was > 100 µM, the TGI (RPMI-8226 leukemia) was > 100 µM and the TGI (SK-MEL-5 melanoma) was > 100 µM. For the same compound, the TGI (UACC-257 melanoma) was > 100 µM, the TGI (UO-31 renal) was > 100 µM and the TGI (786-0 renal) was > 100 µM. For the same compound, the TGI (KM20L2 colon) was > 100 µM, the TGI (SNB-78 CNS) was > 100 µM and the TGI (XF 498 CNS) was > 100 µM. The TGI (SF-295 CNS) was > 100 µM, the TGI (SF-268 CNS) was > 100 µM and the TGI (HT29 colon) was > 100 µM. For the same compound, the TGI (DLD-1 colon) was > 100 µM, the TGI (U251 CNS) was > 100 µM and the TGI (COLO 205 colon) was > 100 µM. For the same compound, the TGI (M14 melanoma) was > 100 µM, the TGI (NCI-H226 lung) was > 100 µM and the TGI (SW-620 colon) was > 100 µM. The TGI (NCI-H23 lung) was > 100 µM, the TGI (DMS 273 small cell lung) was > 100 µM and the TGI (HOP-62 NSCLC) was > 100 µM. For the same compound, the TGI (HOP-92 NSCLC) was > 100 µM, the TGI (IGROV1 ovarian) was > 100 µM and the TGI (MOLT-4 leukemia) was > 100 µM. For the same compound, the TGI (HOP-18 NSCLC) was > 100 µM, the TGI (HL-60(TB) leukemia) was > 100 µM and the TGI (M19-MEL melanoma) was > 100 µM. The TGI (HCT-15 colon) was > 100 µM, the TGI (OVCAR-3 ovarian) was > 100 µM and the TGI (SK-OV-3 ovarian) was > 100 µM. The TGI (SN12C renal) was > 100 µM, the TGI (SF-539 CNS) was > 100 µM and the TGI (NCI-H460 lung) was > 100 µM. The TGI (MALME-3M melanoma) was > 100 µM, the TGI (CAKI-1 renal) was > 100 µM and the TGI (LOX IMVI melanoma) was > 100 µM. The TGI (ACHN renal) was > 100 µM, the TGI (OVCAR-4 ovarian) was > 100 µM and the TGI (OVCAR-5 ovarian) was > 100 µM. For the same compound, the TGI (RXF 393 renal) was > 100 µM, the TGI (SK-MEL-28 melanoma) was > 100 µM and the TGI (DMS 114 small cell lung) was > 100 µM. For the same compound, the TGI (RXF-631 renal) was > 100 µM, the TGI (A498 renal) was > 100 µM and the TGI (UACC-62 melanoma) was > 100 µM. For the same compound, the TGI (LXFL 529 NSCLC) was > 100 µM, the TGI (A549 NSCLC) was > 100 µM and the TGI (K-562 leukemia) was > 100 µM. For the same compound, the TGI (HCC-2998 colon) was > 100 µM.

In the case of `NC(N)=N/N=C(/CC1OC(=O)c2ccccc21)c1ccc2ccccc2c1` (stereo not drawn), the TGI (SK-MEL-2 melanoma) is reported as > 100 µM, the TGI (CCRF-CEM leukemia) is reported as 43.8 µM and the TGI (SNB-75 CNS) is reported as 47.7 µM. For the same compound, the TGI (KM12 colon) was 26.6 µM, the TGI (RPMI-8226 leukemia) was 48 µM and the TGI (SK-MEL-5 melanoma) was 35.8 µM. For the same compound, the TGI (UACC-257 melanoma) was 28.7 µM, the TGI (UO-31 renal) was 32.7 µM and the TGI (786-0 renal) was 32.4 µM. The TGI (SR leukemia) was 33.6 µM, the TGI (KM20L2 colon) was 57.2 µM and the TGI (SNB-78 CNS) was > 100 µM. The TGI (XF 498 CNS) was 20.9 µM, the TGI (SF-295 CNS) was > 100 µM and the TGI (SF-268 CNS) was 31.8 µM. The TGI (HT29 colon) was 45.7 µM, the TGI (DLD-1 colon) was 28 µM and the TGI (U251 CNS) was 30.1 µM. For the same compound, the TGI (COLO 205 colon) was 39 µM, the TGI (M14 melanoma) was 30.3 µM and the TGI (OVCAR-8 ovarian) was 31.5 µM. It also gave a TGI (NCI-H226 lung) of 32.4 µM, a TGI (NCI-H23 lung) of 88.6 µM and a TGI (DMS 273 small cell lung) of 44.9 µM. The TGI (HOP-62 NSCLC) was 42.1 µM, the TGI (HOP-92 NSCLC) was 55 µM and the TGI (IGROV1 ovarian) was 47.2 µM. For the same compound, the TGI (MOLT-4 leukemia) was 79.4 µM, the TGI (HOP-18 NSCLC) was 43.3 µM and the TGI (HL-60(TB) leukemia) was 41.9 µM. It also gave a TGI (M19-MEL melanoma) of 31.6 µM, a TGI (HCT-15 colon) of 31.7 µM and a TGI (OVCAR-3 ovarian) of 38.3 µM. For the same compound, the TGI (SK-OV-3 ovarian) was 74 µM, the TGI (SN12C renal) was 42.2 µM and the TGI (NCI-H522 lung) was 28.8 µM. It also gave a TGI (SF-539 CNS) of 31.9 µM, a TGI (NCI-H460 lung) of 32.5 µM and a TGI (MALME-3M melanoma) of 30 µM. The TGI (CAKI-1 renal) was > 100 µM, the TGI (LOX IMVI melanoma) was > 100 µM and the TGI (ACHN renal) was 33.7 µM. For the same compound, the TGI (OVCAR-4 ovarian) was 37.4 µM, the TGI (SNB-19 CNS) was > 100 µM and the TGI (OVCAR-5 ovarian) was > 100 µM. For the same compound, the TGI (EKVX NSCLC) was 52.9 µM, the TGI (SK-MEL-28 melanoma) was 35.2 µM and the TGI (DMS 114 small cell lung) was 25.6 µM. It also gave a TGI (RXF-631 renal) of 65.2 µM, a TGI (A498 renal) of 33.4 µM and a TGI (UACC-62 melanoma) of 34.7 µM. The TGI (LXFL 529 NSCLC) was 27.7 µM, the TGI (TK-10 renal) was 35 µM and the TGI (K-562 leukemia) was 67 µM. For the same compound, the TGI (HCC-2998 colon) was 31.1 µM.

In the case of `CC(=O)N1CCc2[nH]c3ccccc3c2CC1`, the TGI (SK-MEL-2 melanoma) is reported as > 100 µM, the TGI (CCRF-CEM leukemia) is reported as > 100 µM and the TGI (SNB-75 CNS) is reported as 98.9 µM. The TGI (KM12 colon) was > 100 µM, the TGI (RPMI-8226 leukemia) was > 100 µM and the TGI (SK-MEL-5 melanoma) was > 100 µM. The TGI (UACC-257 melanoma) was > 100 µM, the TGI (786-0 renal) was > 100 µM and the TGI (KM20L2 colon) was > 100 µM. For the same compound, the TGI (SNB-78 CNS) was > 100 µM, the TGI (XF 498 CNS) was > 100 µM and the TGI (SF-295 CNS) was > 100 µM. The TGI (HT29 colon) was > 100 µM, the TGI (DLD-1 colon) was > 100 µM and the TGI (U251 CNS) was > 100 µM. The TGI (COLO 205 colon) was > 100 µM, the TGI (M14 melanoma) was > 100 µM and the TGI (OVCAR-8 ovarian) was > 100 µM. For the same compound, the TGI (SW-620 colon) was > 100 µM, the TGI (NCI-H23 lung) was > 100 µM and the TGI (DMS 273 small cell lung) was > 100 µM. The TGI (HOP-62 NSCLC) was > 100 µM, the TGI (HOP-92 NSCLC) was > 100 µM and the TGI (IGROV1 ovarian) was > 100 µM. The TGI (MOLT-4 leukemia) was > 100 µM, the TGI (HOP-18 NSCLC) was > 100 µM and the TGI (HL-60(TB) leukemia) was > 100 µM. The TGI (M19-MEL melanoma) was > 100 µM, the TGI (HCT-15 colon) was > 100 µM and the TGI (OVCAR-3 ovarian) was > 100 µM. The TGI (SK-OV-3 ovarian) was > 100 µM, the TGI (HCT-116 colon) was > 100 µM and the TGI (SF-539 CNS) was > 100 µM. For the same compound, the TGI (NCI-H460 lung) was > 100 µM, the TGI (MALME-3M melanoma) was > 100 µM and the TGI (CAKI-1 renal) was > 100 µM. For the same compound, the TGI (LOX IMVI melanoma) was > 100 µM, the TGI (ACHN renal) was > 100 µM and the TGI (OVCAR-4 ovarian) was > 100 µM. The TGI (OVCAR-5 ovarian) was > 100 µM, the TGI (EKVX NSCLC) was > 100 µM and the TGI (SK-MEL-28 melanoma) was > 100 µM. The TGI (DMS 114 small cell lung) was > 100 µM, the TGI (RXF-631 renal) was > 100 µM and the TGI (A498 renal) was > 100 µM. For the same compound, the TGI (UACC-62 melanoma) was > 100 µM, the TGI (LXFL 529 NSCLC) was > 100 µM and the TGI (A549 NSCLC) was > 100 µM. For the same compound, the TGI (TK-10 renal) was > 100 µM, the TGI (K-562 leukemia) was > 100 µM and the TGI (HCC-2998 colon) was > 100 µM.
